Like-named read-outs stand apart in the source and are kept apart here.
Legend:
Assay type in all cases: in vivo
[1] = system: crabgrass, Large (large crabgrass, Digitaria sanguinalis); assay: Test A pre-/postemergence greenhouse herbicide test; conditions: Digitaria sanguinalis, 240 h, 0 to 100 scale (0 no effect, 100 complete control), approx. 10 d, read-out: Plant response rating, Crabgrass, Large; for pest or weed control at 125 g/ha: 125 g ai/ha; for pest or weed control at 500 g/ha: 500 g ai/ha
How it was run: (§1)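 Seeds sown in loam–sand blend received a directed preemergence soil spray; postemergence spray was applied at the same time to plants 2–10 cm tall at one- to two-leaf stage. Compounds were in non-phytotoxic solvent with surfactant. Visual injury versus untreated controls after ~10 d in greenhouse, 0–100 scale (100 = complete control).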

[2] = system: pigweed (Amaranthus retroflexus); assay: as above; conditions: Amaranthus retroflexus, 240 h, 0 to 100 scale (0 no effect, 100 complete control), approx. 10 d, read-out: Plant response rating, Pigweed; for pest or weed control at 125 g/ha: 125 g ai/ha; for pest or weed control at 500 g/ha: 500 g ai/ha
How it was run: as §1

[3] = system: wheat (Triticum aestivum); assay: as above; conditions: Triticum aestivum, 240 h, 0 to 100 scale (0 no effect, 100 complete control), approx. 10 d, read-out: Plant response rating, Wheat; for plant injury at 125 g/ha: 125 g ai/ha; for plant injury at 500 g/ha: 500 g ai/ha
How it was run: as §1

[4] = system: barnyardgrass (Echinochloa crus-galli); assay: Test C pre-/postemergence greenhouse herbicide test; conditions: Barnyardgrass
How it was run: (§2)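 Seeds in loam–sand blend sprayed preemergence, and 1- to 4-leaf plants (2–18 cm) sprayed postemergence, with compounds in non-phytotoxic solvent plus surfactant. Visual rating versus controls after 13–15 d in greenhouse, 0 (no effect) to 100 (complete control).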

[5] = system: blackgrass (Alopecurus myosuroides); assay: as above; conditions: Alopecurus myosuroides, Blackgrass, read-out: Plant response rating; for pest or weed control at 31 g/ha: 31 g ai/ha; for pest or weed control at 62 g/ha: 62 g ai/ha; for pest or weed control at 125 g/ha: 125 g ai/ha; for pest or weed control at 250 g/ha: 250 g ai/ha
How it was run: as §2

corn (Zea mays) = assay: as above; conditions: Zea mays, Corn, read-out: Plant response rating; for plant injury at 62 g/ha: 62 g ai/ha; for plant injury at 125 g/ha: 125 g ai/ha; for plant injury at 250 g/ha: 250 g ai/ha
How it was run: as §2

[6] = system: crabgrass, Large (large crabgrass, Digitaria sanguinalis); assay: as above; conditions: Digitaria sanguinalis, Crabgrass, Large, read-out: Plant response rating; for pest or weed control at 31 g/ha: 31 g ai/ha; for pest or weed control at 62 g/ha: 62 g ai/ha; for pest or weed control at 125 g/ha: 125 g ai/ha; for pest or weed control at 250 g/ha: 250 g ai/ha
How it was run: as §2

[7] = system: johnsongrass (Sorghum halepense); assay: as above; conditions: Sorghum halepense, Johnsongrass, read-out: Plant response rating; for pest or weed control at 31 g/ha: 31 g ai/ha; for pest or weed control at 62 g/ha: 62 g ai/ha; for pest or weed control at 125 g/ha: 125 g ai/ha; for pest or weed control at 250 g/ha: 250 g ai/ha
How it was run: as §2

soybean (Glycine max) = assay: as above; conditions: Glycine max, Soybean, read-out: Plant response rating; for plant injury at 62 g/ha: 62 g ai/ha; for plant injury at 125 g/ha: 125 g ai/ha; for plant injury at 250 g/ha: 250 g ai/ha
How it was run: as §2

[8] = system: wheat (winter wheat, Triticum aestivum); assay: as above; conditions: Triticum aestivum, Wheat, read-out: Plant response rating; for plant injury at 62 g/ha: 62 g ai/ha; for plant injury at 125 g/ha: 125 g ai/ha; for plant injury at 250 g/ha: 250 g ai/ha
How it was run: as §2

[9] = post-emergence, Postemergence, 31 g ai/ha

Molecule `Cc1cc(=O)n(-c2ccc(C(F)(F)F)cc2)nc1Cc1ccnc(C(F)(F)F)c1` [Compound 2, 5-methyl-2-[4-(trifluoromethyl)phenyl]-6-[[2-(trifluoromethyl)-4-pyridinyl]methyl]-3(2H)-pyridazinone] has a pest or weed control at 125 g/ha ([1]; post-emergence, Postemergence) of 80%, a pest or weed control at 500 g/ha ([1]; post-emergence, Postemergence) of 100% and a pest or weed control at 125 g/ha ([1]; pre-emergence, Preemergence) of 100%. The pest or weed control at 500 g/ha ([1]; pre-emergence, Preemergence) was 100%, the pest or weed control at 125 g/ha ([2]; post-emergence, Postemergence) was 90% and the pest or weed control at 500 g/ha ([2]; post-emergence, Postemergence) was 100%. The pest or weed control at 125 g/ha ([2]; pre-emergence, Preemergence) was 100%, the pest or weed control at 500 g/ha ([2]; pre-emergence, Preemergence) was 100% and the plant injury at 125 g/ha ([3]; post-emergence, Postemergence) was 40%. For the same molecule, the plant injury at 500 g/ha ([3]; post-emergence, Postemergence) was 80%, the plant injury at 125 g/ha ([3]; pre-emergence, Preemergence) was 0% and the plant injury at 500 g/ha ([3]; pre-emergence, Preemergence) was 40%. It also gave a Plant response rating ([4]; Postemergence, 31 g ai/ha) of 5, a Plant response rating ([4]; Postemergence, 62 g ai/ha) of 10 and a Plant response rating ([4]; Postemergence, 125 g ai/ha) of 10. It also gave a Plant response rating ([4]; Postemergence, 250 g ai/ha) of 25, a Plant response rating ([4]; Preemergence, 31 g ai/ha) of 65 and a Plant response rating ([4]; Preemergence, 62 g ai/ha) of 70. For the same molecule, the Plant response rating ([4]; Preemergence, 125 g ai/ha) was 90, the Plant response rating ([4]; Preemergence, 250 g ai/ha) was 98 and the pest or weed control at 31 g/ha ([5]; post-emergence, Postemergence) was 5%. For the same molecule, the pest or weed control at 62 g/ha ([5]; post-emergence, Postemergence) was 5%, the pest or weed control at 125 g/ha ([5]; post-emergence, Postemergence) was 10% and the pest or weed control at 250 g/ha ([5]; post-emergence, Postemergence) was 15%. For the same molecule, the pest or weed control at 31 g/ha ([5]; pre-emergence, Preemergence) was 10%, the pest or weed control at 62 g/ha ([5]; pre-emergence, Preemergence) was 45% and the pest or weed control at 125 g/ha ([5]; pre-emergence, Preemergence) was 90%. It also gave a pest or weed control at 250 g/ha ([5]; pre-emergence, Preemergence) of 90%, a plant injury at 62 g/ha (corn (Zea mays); post-emergence, Postemergence) of 20% and a plant injury at 125 g/ha (corn (Zea mays); post-emergence, Postemergence) of 20%. It also gave a plant injury at 250 g/ha (corn (Zea mays); post-emergence, Postemergence) of 20%, a plant injury at 31 g/ha (corn (Zea mays); pre-emergence, Preemergence, 31 g ai/ha) of 35% and a plant injury at 62 g/ha (corn (Zea mays); pre-emergence, Preemergence) of 55%. For the same molecule, the plant injury at 125 g/ha (corn (Zea mays); pre-emergence, Preemergence) was 75%, the plant injury at 250 g/ha (corn (Zea mays); pre-emergence, Preemergence) was 75% and the pest or weed control at 31 g/ha ([6]; post-emergence, Postemergence) was 5%. It also gave a pest or weed control at 62 g/ha ([6]; post-emergence, Postemergence) of 5%, a pest or weed control at 125 g/ha ([6]; post-emergence, Postemergence) of 15% and a pest or weed control at 250 g/ha ([6]; post-emergence, Postemergence) of 35%. It also gave a pest or weed control at 31 g/ha ([6]; pre-emergence, Preemergence) of 75%, a pest or weed control at 62 g/ha ([6]; pre-emergence, Preemergence) of 80% and a pest or weed control at 125 g/ha ([6]; pre-emergence, Preemergence) of 100%. For the same molecule, the pest or weed control at 250 g/ha ([6]; pre-emergence, Preemergence) was 100%, the pest or weed control at 31 g/ha ([7]; post-emergence, Postemergence) was 5% and the pest or weed control at 62 g/ha ([7]; post-emergence, Postemergence) was 5%. It also gave a pest or weed control at 125 g/ha ([7]; post-emergence, Postemergence) of 10%, a pest or weed control at 250 g/ha ([7]; post-emergence, Postemergence) of 10% and a pest or weed control at 31 g/ha ([7]; pre-emergence, Preemergence) of 65%. For the same molecule, the pest or weed control at 62 g/ha ([7]; pre-emergence, Preemergence) was 70%, the pest or weed control at 125 g/ha ([7]; pre-emergence, Preemergence) was 80% and the pest or weed control at 250 g/ha ([7]; pre-emergence, Preemergence) was 90%. For the same molecule, the plant injury at 31 g/ha (soybean (Glycine max); [9]) was 20%, the plant injury at 62 g/ha (soybean (Glycine max); post-emergence, Postemergence) was 30% and the plant injury at 125 g/ha (soybean (Glycine max); post-emergence, Postemergence) was 40%. For the same molecule, the plant injury at 250 g/ha (soybean (Glycine max); post-emergence, Postemergence) was 40%, the plant injury at 62 g/ha (soybean (Glycine max); pre-emergence, Preemergence) was 25% and the plant injury at 125 g/ha (soybean (Glycine max); pre-emergence, Preemergence) was 55%. The plant injury at 250 g/ha (soybean (Glycine max); pre-emergence, Preemergence) was 60%, the plant injury at 31 g/ha [8, 9] was 5% and the plant injury at 62 g/ha ([8]; post-emergence, Postemergence) was 5%. It also gave a plant injury at 125 g/ha ([8]; post-emergence, Postemergence) of 5%, a plant injury at 250 g/ha ([8]; post-emergence, Postemergence) of 5% and a plant injury at 62 g/ha ([8]; pre-emergence, Preemergence) of 0%. For the same molecule, the plant injury at 125 g/ha ([8]; pre-emergence, Preemergence) was 10% and the plant injury at 250 g/ha ([8]; pre-emergence, Preemergence) was 30%.

From patent US10202361B2, “Pyridazinones as herbicides” (E I DU PONT DE NEMOURS AND COMPANY, priority 2014, dated 2019)
